# Read-outs that look alike come from different tables or passages of the source. Where a SMILES comes first, the peptide text is derived from it. Side-chain parts run from the residue outwards. [ ]: non-standard residue; d: D form. The star is where a group is joined. αMePhe(2-F) = C[C@](N)(Cc1ccccc1F)C(=O)O; C14 diacid = O=C(O)CCCCCCCCCCCCC(=O)*; αMeY = C[C@](N)(Cc1ccc(O)cc1)C(=O)O; 4Pal = N[C@@H](Cc1ccncc1)C(=O)O; αMeL = CC(C)C[C@](C)(N)C(=O)O; Orn = NCCC[C@H](N)C(=O)O; AEEA = NCCOCCOCC(=O)O; Aib = CC(C)(N)C(=O)O
# What was measured:
# Assay type in all cases: cell-based
# hGLP-1R = hGLP-1R (Homo sapiens, UniProt P43220); experiment: Functional cAMP formation (HTRF) in HEK-293 clonal cells expressing hGLP-1R, 0.1% bovine casein, without or with 1.0% human serum albumin; parameters: expressed in transfected cells; details: for EC50: cAMP, 0.1% bovine casein (no human serum albumin), geometric mean
# hGLP-1R, sequence (P43220 24-463): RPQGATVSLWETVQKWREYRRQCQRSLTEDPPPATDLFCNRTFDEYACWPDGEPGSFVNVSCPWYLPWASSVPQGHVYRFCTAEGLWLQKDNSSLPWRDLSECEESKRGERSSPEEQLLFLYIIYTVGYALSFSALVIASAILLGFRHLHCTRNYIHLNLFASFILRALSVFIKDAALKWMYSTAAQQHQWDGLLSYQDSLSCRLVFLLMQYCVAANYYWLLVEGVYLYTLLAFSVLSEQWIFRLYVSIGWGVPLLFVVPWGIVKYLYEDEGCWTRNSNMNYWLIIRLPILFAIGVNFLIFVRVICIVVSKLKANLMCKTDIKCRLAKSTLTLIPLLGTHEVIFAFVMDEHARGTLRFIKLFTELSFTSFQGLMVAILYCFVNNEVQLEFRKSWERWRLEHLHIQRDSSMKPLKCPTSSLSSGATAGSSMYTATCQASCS
# In short: (§1)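 Cells were stimulated with peptide for 30 min at 37° C, then lysed in buffer carrying cAMP-d2 and anti-cAMP Eu3+-cryptate for a competitive HTRF read after at least 60 min at room temperature. The 665/620 nm ratio was converted to nM cAMP against a standard curve.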
# hGCGR = target: T1, hGCGR (Homo sapiens, UniProt P47871); experiment: Functional cAMP formation (HTRF) in HEK-293 clonal cells expressing hGCGR, 0.1% bovine casein, without or with 1.0% human serum albumin
# T1 construct: expressed in transfected cells
# T1 sequence (P47871 26-477): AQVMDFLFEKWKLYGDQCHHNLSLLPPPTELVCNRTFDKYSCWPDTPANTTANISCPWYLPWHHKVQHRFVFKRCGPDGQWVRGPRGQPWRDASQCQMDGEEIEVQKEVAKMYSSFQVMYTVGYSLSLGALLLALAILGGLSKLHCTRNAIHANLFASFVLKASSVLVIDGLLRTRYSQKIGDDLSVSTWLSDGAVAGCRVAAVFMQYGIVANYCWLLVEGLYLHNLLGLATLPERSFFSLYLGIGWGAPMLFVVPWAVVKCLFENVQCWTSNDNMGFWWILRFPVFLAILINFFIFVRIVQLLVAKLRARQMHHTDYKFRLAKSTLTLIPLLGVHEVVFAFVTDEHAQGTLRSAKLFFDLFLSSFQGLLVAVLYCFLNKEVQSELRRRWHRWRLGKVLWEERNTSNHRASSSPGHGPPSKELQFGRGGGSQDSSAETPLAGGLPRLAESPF
# In short: as §1
# hGIPR = target: T2, hGIPR (Homo sapiens, UniProt P48546); experiment: Functional cAMP formation (HTRF) in HEK-293 clonal cells expressing hGIPR, 0.1% bovine casein, without or with 1.0% human serum albumin; details: for Emax: percent of maximal response to GIP(1-42)NH2
# T2 construct: expressed in transfected cells
# T2 sequence (P48546 22-466): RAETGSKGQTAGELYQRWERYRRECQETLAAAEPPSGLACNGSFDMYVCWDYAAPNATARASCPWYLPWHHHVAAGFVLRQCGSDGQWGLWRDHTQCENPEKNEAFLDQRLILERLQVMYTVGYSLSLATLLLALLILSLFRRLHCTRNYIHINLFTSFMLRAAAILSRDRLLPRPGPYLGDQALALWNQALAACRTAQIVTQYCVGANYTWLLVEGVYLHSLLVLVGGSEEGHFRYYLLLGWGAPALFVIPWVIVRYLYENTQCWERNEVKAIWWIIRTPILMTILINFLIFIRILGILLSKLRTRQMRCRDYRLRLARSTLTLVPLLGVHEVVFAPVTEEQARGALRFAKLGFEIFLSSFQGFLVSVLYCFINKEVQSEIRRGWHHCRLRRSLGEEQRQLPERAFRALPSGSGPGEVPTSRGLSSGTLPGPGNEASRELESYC
# In short: as §1
# [1] = 37° C., read-out: hGLP-1R EC50, nM (SEM, n)
# [2] = cAMP, 37° C., 0.1% bovine casein (no human serum albumin), geometric mean, read-out: hGCGR EC50, nM (SEM, n)
# [3] = cAMP, 37° C., 0.1% bovine casein and 1.0% human serum albumin, geometric mean (SEM, n), read-out: hGCGR EC50, nM (SEM, n)
# [4] = HEK293, cAMP, 37° C., 0.1% bovine casein and 1.0% human serum albumin, read-out: hGIPR Emax, % ± SEM
# [5] = cAMP, 37° C., 0.1% bovine casein (no human serum albumin), geometric mean, read-out: hGIPR EC50, nM (SEM, n)
structure (smiles),measurement,setting,value
CC[C@H](C)[C@H](NC(=O)[C@H](CC(C)C)NC(=O)[C@](C)(Cc1ccc(O)cc1)NC(=O)[C@H](CCCCNC(=O)COCCOCCNC(=O)CCCCCCCNC(=O)CC[C@H](NC(=O)CCCCCCCCCOc1ccc(C(=O)O)cc1)C(=O)O)NC(=O)[C@@H](NC(=O)[C@H](Cc1ccccc1)NC(=O)[C@H](CCCN)NC(=O)C(C)(C)NC(=O)[C@H](CCC(N)=O)NC(=O)[C@H](C)NC(=O)[C@H](CCC(N)=O)NC(=O)[C@H](CCCN)NC(=O)[C@H](CC(=O)O)NC(=O)[C@H](CC(C)C)NC(=O)[C@](C)(CC(C)C)NC(=O)[C@@H](NC(=O)C(C)(C)NC(=O)[C@H](Cc1ccncc1)NC(=O)[C@H](CC(=O)O)NC(=O)[C@H](CO)NC(=O)[C@@H](NC(=O)[C@](C)(Cc1ccccc1F)NC(=O)[C@@H](NC(=O)CNC(=O)[C@H](CCC(=O)O)NC(=O)C(C)(C)NC(=O)[C@@H](N)Cc1ccc(O)cc1)[C@@H](C)O)[C@@H](C)O)[C@@H](C)CC)[C@@H](C)CC)C(=O)N[C@@H](CCCCNC(=O)COCCOCCNC(=O)CCCCCCCNC(=O)CC[C@H](NC(=O)CCCCCCCCCOc1ccc(C(=O)O)cc1)C(=O)O)C(=O)NCC(=O)NCC(=O)N1CCC[C@H]1C(=O)N[C@@H](CO)C(=O)N[C@@H](CO)C(=O)NCC(=O)N[C@@H](C)C(=O)N1CCC[C@H]1C(=O)N1CCC[C@H]1C(=O)N1CCC[C@H]1C(=O)N[C@@H](CO)C(N)=O [Example 454],Emax,"hGLP-1R; HEK293, read-out: hGLP-1R Emax, % ± SEM, cAMP, 37° C., 0.1% bovine casein, percent of maximal response to GLP-1(7-36)NH2, arithmetic mean",114%
same,EC50,"hGLP-1R; hGLP-1R EC50, nM (SEM, n), 37° C.",0.266 nM
same,EC50,"hGCGR; hGCGR EC50, nM (SEM, n), cAMP, 37° C., 0.1% bovine casein (no human serum albumin), geometric mean",> 9950 nM
same,EC50,"hGCGR; hGCGR EC50, nM (SEM, n), cAMP, 37° C., 0.1% bovine casein and 1.0% human serum albumin, geometric mean (SEM, n)",> 9950 nM
same,Emax,"hGIPR; HEK293, read-out: hGIPR Emax, % ± SEM, cAMP, 37° C., 0.1% bovine casein and 1.0% human serum albumin",91.5%
same,EC50,"hGIPR; hGIPR EC50, nM (SEM, n), cAMP, 37° C., 0.1% bovine casein (no human serum albumin), geometric mean",0.0202 nM
CC[C@H](C)[C@H](NC(=O)[C@H](CC(C)C)NC(=O)[C@](C)(Cc1ccc(O)cc1)NC(=O)[C@@H](CCC(=O)O)NC(=O)[C@@H](NC(=O)[C@H](Cc1ccccc1)NC(=O)[C@H](CCCCNC(=O)COCCOCCNC(=O)CC[C@H](NC(=O)CCCCCCCCCCCCC(=O)O)C(=O)O)NC(=O)C(C)(C)NC(=O)[C@H](CCC(N)=O)NC(=O)[C@H](C)NC(=O)[C@H](CCCCNC(=O)COCCOCCNC(=O)CC[C@H](NC(=O)CCCCCCCCCCCCC(=O)O)C(=O)O)NC(=O)[C@H](CCCN)NC(=O)[C@H](CC(=O)O)NC(=O)[C@H](CC(C)C)NC(=O)[C@](C)(CC(C)C)NC(=O)[C@@H](NC(=O)C(C)(C)NC(=O)[C@H](Cc1ccncc1)NC(=O)[C@H](CC(=O)O)NC(=O)[C@H](CO)NC(=O)[C@@H](NC(=O)[C@](C)(Cc1ccccc1F)NC(=O)[C@@H](NC(=O)CNC(=O)[C@H](CCC(=O)O)NC(=O)C(C)(C)NC(=O)[C@@H](N)Cc1ccc(O)cc1)[C@@H](C)O)[C@@H](C)O)[C@@H](C)CC)[C@@H](C)CC)C(=O)N[C@@H](CCC(=O)O)C(=O)NCC(=O)NCC(=O)N1CCC[C@H]1C(=O)N[C@@H](CO)C(=O)N[C@@H](CO)C(=O)NCC(=O)N[C@@H](C)C(=O)N1CCC[C@H]1C(=O)N1CCC[C@H]1C(=O)N1CCC[C@H]1C(=O)N[C@@H](CO)C(N)=O [Example 336],EC50,hGLP-1R; [1],0.338 nM
same,EC50,hGCGR; [2],> 10100 nM
same,EC50,hGCGR; [3],> 10100 nM
same,Emax,hGIPR; [4],94.6%
same,Emax,"hGIPR; HEK293, cAMP, 37° C., 0.1% bovine casein, arithmetic mean, read-out: hGIPR Emax, % ± SEM",109%
same,EC50,hGIPR; [5],0.0136 nM
same,EC50,"hGIPR; cAMP, 37° C., 0.1% bovine casein and 1.0% human serum albumin, geometric mean (SEM, n), read-out: hGIPR EC50, nM (SEM, n)",2.92 nM
CC[C@H](C)[C@H](NC(=O)[C@H](CCCN)NC(=O)[C@H](CC(=O)O)NC(=O)[C@H](CC(C)C)NC(=O)[C@](C)(CC(C)C)NC(=O)[C@@H](NC(=O)[C@H](CO)NC(=O)[C@H](Cc1ccncc1)NC(=O)[C@H](CC(=O)O)NC(=O)[C@H](CO)NC(=O)[C@@H](NC(=O)[C@](C)(Cc1ccccc1F)NC(=O)[C@@H](NC(=O)CNC(=O)[C@H](CCC(=O)O)NC(=O)C(C)(C)NC(=O)[C@@H](N)Cc1ccc(O)cc1)[C@@H](C)O)[C@@H](C)O)[C@@H](C)CC)C(=O)N[C@@H](C)C(=O)N[C@@H](CCC(N)=O)C(=O)NC(C)(C)C(=O)N[C@@H](CCC(=O)O)C(=O)N[C@@H](Cc1ccccc1)C(=O)N[C@H](C(=O)N[C@H](CCC(=O)O)C(=O)N[C@@](C)(Cc1ccc(O)cc1)C(=O)N[C@@H](CC(C)C)C(=O)N[C@H](C(=O)N[C@@H](CCCCNC(=O)COCCOCCNC(=O)COCCOCCNC(=O)CCCCCCCCCCCCC(=O)O)C(=O)NCC(=O)NCC(=O)N1CCC[C@H]1C(=O)N[C@@H](CO)C(=O)N[C@@H](CO)C(=O)NCC(=O)N[C@@H](C)C(=O)N1CCC[C@H]1C(=O)N1CCC[C@H]1C(=O)N1CCC[C@H]1C(=O)N[C@@H](CO)C(=O)N[C@@H](CCCCNC(=O)COCCOCCNC(=O)COCCOCCNC(=O)CCCCCCCCCCCCC(=O)O)C(N)=O)[C@@H](C)CC)[C@@H](C)CC [Example 223] (H-Y[Aib]EGT[αMePhe(2-F)]TSD[4Pal]SI[αMeL]LD[Orn]IAQ[Aib]EFI[dE][αMeY]LIK([AEEA-AEEA-C14 diacid])GGPSSGAPPPSK([AEEA-AEEA-C14 diacid])-NH2),Emax,"hGLP-1R; HEK293, 0.1% bovine casein and 1.0% human serum albumin, 37° C., percent of maximal response to GLP-1(7-36)NH2, read-out: hGLP-1R Emax, % ± SEM",115%
same,Emax,"hGLP-1R; HEK293, percent of maximal response to GLP-1(7-36)NH2, 37° C., 0.1% bovine casein, arithmetic mean, read-out: hGLP-1R Emax, % ± SEM",94%
same,EC50,"hGLP-1R; incubated at 37° C., read-out: hGLP-1R EC50, nM (SEM, n)",1.43 nM
same,EC50,"hGCGR; 0.1% bovine casein and 1.0% human serum albumin, 37° C., geometric mean, read-out: hGCGR EC50, nM (SEM, n)",> 9950 nM
same,EC50,"hGCGR; cAMP, incubated at 37° C., 0.1% bovine casein (no human serum albumin), geometric mean, read-out: hGCGR EC50, nM (SEM, n)",> 9950 nM
same,EC50,"hGIPR; 0.1% bovine casein and 1.0% human serum albumin, 37° C., geometric mean, read-out: hGIPR EC50, nM (SEM, n)",7.84 nM
same,Emax,"hGIPR; HEK293, 0.1% bovine casein and 1.0% human serum albumin, 37° C., read-out: hGIPR Emax, % ± SEM",79.2%
same,EC50,"hGIPR; cAMP, incubated at 37° C., 0.1% bovine casein (no human serum albumin), geometric mean, read-out: hGIPR EC50, nM (SEM, n)",0.0252 nM
CCCCCCCCCCCC(=O)N[C@@H](CCC(=O)NCCOCCOCC(=O)NCCOCCOCC(=O)NCCCC[C@H](NC(=O)[C@H](CO)NC(=O)[C@@H]1CCCN1C(=O)[C@@H]1CCCN1C(=O)[C@@H]1CCCN1C(=O)[C@H](C)NC(=O)CNC(=O)[C@H](CO)NC(=O)[C@H](CO)NC(=O)[C@@H]1CCCN1C(=O)CNC(=O)CNC(=O)[C@H](CCC(=O)O)NC(=O)[C@@H](NC(=O)[C@H](CC(C)C)NC(=O)[C@](C)(Cc1ccc(O)cc1)NC(=O)[C@@H](CCC(=O)O)NC(=O)[C@@H](NC(=O)[C@H](Cc1ccccc1)NC(=O)[C@H](Cc1ccncc1)NC(=O)C(C)(C)NC(=O)[C@H](CCC(N)=O)NC(=O)[C@H](C)NC(=O)[C@H](CCCCNC(=O)COCCOCCNC(=O)COCCOCCNC(=O)CC[C@H](NC(=O)CCCCCCCCCCC)C(=O)O)NC(=O)[C@H](CCCN)NC(=O)[C@H](CC(=O)O)NC(=O)[C@H](CC(C)C)NC(=O)[C@](C)(CC(C)C)NC(=O)[C@@H](NC(=O)C(C)(C)NC(=O)[C@H](Cc1ccncc1)NC(=O)[C@H](CC(=O)O)NC(=O)[C@H](CO)NC(=O)[C@@H](NC(=O)[C@](C)(Cc1ccccc1F)NC(=O)[C@@H](NC(=O)CNC(=O)[C@H](CCC(=O)O)NC(=O)C(C)(C)NC(=O)[C@@H](N)Cc1ccc(O)cc1)[C@@H](C)O)[C@@H](C)O)[C@@H](C)CC)[C@@H](C)CC)[C@@H](C)CC)C(N)=O)C(=O)O [Example 420],Emax,"hGLP-1R; HEK293, cAMP, 37° C., 0.1% bovine casein and 1.0% human serum albumin, percent of maximal response to GLP-1(7-36)NH2, read-out: hGLP-1R Emax, % ± SEM",109%
same,EC50,hGLP-1R; [1],0.123 nM
same,EC50,hGCGR; [2],> 9950 nM
same,EC50,hGCGR; [3],> 9950 nM
same,Emax,hGIPR; [4],89.7%
same,EC50,hGIPR; [5],0.00964 nM

# — patent US20230265151A1, “GIP/GLP1 CO-AGONIST COMPOUNDS” (priority 2020, published 2023)
